Source: ChEMBL document CHEMBL6120978, “Anticancer activity of salinomycin quaternary phosphonium salts” (Eur J Med Chem, 2025)
Active and inactive are the calls of the source. No cut-off for these calls is given here.

Experiments:
A549 [1] = test: Effect on mitochondrial mass in human A549 cells assessed as fold increase in mean fluorescence intensity at IC50 incubated for 48 hrs by MitoTracker Green FM staining based flow cytometry analysis relative to control; assay type: functional
Mitochondrial membrane [2] = test: Induction of mitochondrial membrane potential loss in human MDA-MB-231 cells assessed as red fluorescence at IC50 incubated for 48 hrs MitoTrackerRed CMXRos staining based flow cytometry analysis (reference value: 91.1 %); assay type: cell membranes
[3] = test system: Staphylococcus epidermidis; test: Antimicrobial activity against Staphylococcus epidermidis ATCC 35984 incubated for 18 hrs by twofold microdilution method; assay type: functional
Staphylococcus aureus [4] = test: Antimicrobial activity against Staphylococcus aureus NCTC 4163 incubated for 18 hrs by twofold microdilution method; assay type: functional
[5] = Selectivity index, ratio of IC50 for cytotoxicity against human HaCaT cells to IC50 for cytotoxicity against human SW620 cells; assay type: toxicity, cell-based; conditions: HaCaT cells versus SW620 cells, read-out: Ratio IC50
[6] = Selectivity index, ratio of IC50 for cytotoxicity against chinese hamster V79 cells to IC50 for cytotoxicity against human PC-3 cells; assay type: toxicity, cell-based; conditions: V79 cells versus PC-3 cells, read-out: Ratio IC50
[7] = Cytotoxicity against human HaCaT cells incubated for 72 hrs by MTT assay; assay type: toxicity, cell-based
MDA-MB-231 [8] = test: Induction of apoptosis in human MDA-MB-231 cells assessed as necrotic cells at IC50 incubated for 72 hrs by Annexin V-FITC staining based flow cytometry analysis (reference value: 1.17 %); assay type: functional
Staphylococcus aureus [9] = test: Antimicrobial activity against Staphylococcus aureus ATCC 25923 incubated for 18 hrs by twofold microdilution method; assay type: functional
[10] = test system: Staphylococcus epidermidis; test: Antimicrobial activity against Staphylococcus epidermidis ATCC 12228 incubated for 18 hrs by twofold microdilution method; assay type: functional
MDA-MB-231 [11] = test: Induction of cell cycle arrest in human […] cells assessed as accumulation of cells at S phase at IC50 incubated for 24 hrs by propidium iodide staining based flow cytometry analysis; assay type: functional
MDA-MB-231 [12] = test: Induction of ROS generation of human MDA-MB-231 cells assessed as fold increase at IC50 incubated for 6 hrs by CellROX Green staining based spectrofluorometer analysis relative to control; assay type: functional
[13] = Selectivity index, ratio of IC50 for cytotoxicity against human HaCaT cells to IC50 for cytotoxicity against human PC-3 cells; assay type: toxicity, cell-based; conditions: HaCaT cells versus PC-3 cells, read-out: Ratio IC50
MDA-MB-231 [14] = test: Induction of cell cycle arrest in human […] cells assessed as accumulation of cells at G0/G1 phase at IC50 incubated for 24 hrs by propidium iodide staining based flow cytometry analysis (reference value: 50.9 %); assay type: functional
A549 [15] = test: Cytotoxicity against human A549 cells incubated for 72 hrs by MTT assay; assay type: functional, cell-based; conditions: A549, 72 h
[16] = Selectivity index, ratio of IC50 for cytotoxicity against human HaCaT cells to IC50 for cytotoxicity against human A549 cells; assay type: toxicity, cell-based; conditions: HaCaT cells versus A549 cells, read-out: Ratio IC50
A549 [17] = test: Effect on mitochondrial function in human A549 cells assessed as increase in MTRed CMXRos positive cells at IC50 incubated for 48 hrs by MitoTracker Red CMXRos staining based flow cytometry analysis relative to control; assay type: functional
A549 [18] = test: Induction of cell cycle arrest in human A549 cells assessed as accumulation of cells at G2 phase at IC50 incubated for 24 hrs by propidium iodide staining based flow cytometry analysis (reference value: 20.8 %); assay type: functional
MDA-MB-231 [19] = test: Effect on mitochondrial mass in human MDA-MB-231 cells assessed as fold increase in mean fluorescence intensity at IC50 incubated for 48 hrs by MitoTracker Green FM staining based flow cytometry analysis relative to control; assay type: functional
MDA-MB-231 [20] = test: Cytotoxicity against human MDA-MB-231 cells incubated for 72 hrs by MTT assay; assay type: functional, cell-based; conditions: MDA-MB-231, 72 h
Escherichia coli = test: Antimicrobial activity against Escherichia coli ATCC 25922 incubated for 18 hrs by twofold microdilution method; assay type: functional
SW-620 = test: Cytotoxicity against human SW620 cells incubated for 72 hrs by MTT assay; assay type: functional, cell-based; conditions: SW-620, 72 h
[21] = Cytotoxicity against chinese hamster V79 cells incubated for 72 hrs by MTT assay; assay type: toxicity, cell-based, Cricetulus griseus
A549 [22] = test: Effect on mitochondrial function in human A549 cells assessed as fold increase in mean fluorescence intensity at IC50 incubated for 48 hrs by MitoTracker Red CMXRos staining based flow cytometry analysis relative to control; assay type: functional
MDA-MB-231 [23] = test: Induction of cell cycle arrest in human […] cells assessed as accumulation of cells at G2 phase at IC50 incubated for 24 hrs by propidium iodide staining based flow cytometry analysis; assay type: functional
A549 [24] = test: Induction of apoptosis in human A549 cells assessed as late apoptotic cells at IC50 incubated for 72 hrs by Annexin V-FITC staining based flow cytometry analysis (reference value: 1.86 %); assay type: functional
A549 [25] = test: Induction of apoptosis in human A549 cells assessed as viable cells at IC50 incubated for 72 hrs by Annexin V-FITC staining based flow cytometry analysis (reference value: 95.49 %); assay type: functional
Staphylococcus aureus [26] = test: Antimicrobial activity against Staphylococcus aureus ATCC 29213 incubated for 18 hrs by twofold microdilution method; assay type: functional
A549 [27] = test: Effect on mitochondrial mass in human A549 cells assessed as increase in MTGreen positive cells at IC50 incubated for 48 hrs by MitoTracker Green FM staining based flow cytometry analysis relative to control; assay type: functional
[28] = Selectivity index, ratio of IC50 for cytotoxicity against chinese hamster V79 cells to IC50 for cytotoxicity against human MDA-MB-231 cells; assay type: toxicity, cell-based; conditions: V79 cells versus MDA-MB-231 cells, read-out: Ratio IC50
MDA-MB-231 [29] = test: Induction of apoptosis in human MDA-MB-231 cells assessed as late apoptotic cells at IC50 incubated for 72 hrs by Annexin V-FITC staining based flow cytometry analysis (reference value: 3.07 %); assay type: functional
MDA-MB-231 [30] = test: Effect on mitochondrial function in human MDA-MB-231 cells assessed as fold increase in mean fluorescence intensity at IC50 incubated for 48 hrs by MitoTracker Red CMXRos staining based flow cytometry analysis relative to control; assay type: functional
A549 [31] = test: Induction of apoptosis in human A549 cells assessed as necrotic cells at IC50 incubated for 72 hrs by Annexin V-FITC staining based flow cytometry analysis (reference value: 0.97 %); assay type: functional
Staphylococcus aureus [32] = test: Antimicrobial activity against Staphylococcus aureus ATCC 6538 incubated for 18 hrs by twofold microdilution method; assay type: functional
Mitochondrial membrane [33] = test: Induction of mitochondrial membrane potential loss in human A549 cells assessed as red fluorescence at IC50 incubated for 48 hrs MitoTrackerRed CMXRos staining based flow cytometry analysis (reference value: 91.1 %); assay type: cell membranes
A549 [34] = test: Induction of cell cycle arrest in human A549 cells assessed as accumulation of cells at S phase at IC50 incubated for 24 hrs by propidium iodide staining based flow cytometry analysis (reference value: 21.6 %); assay type: functional
A549 [35] = test: Induction of cell cycle arrest in human A549 cells assessed as accumulation of cells at G0/G1 phase at IC50 incubated for 24 hrs by propidium iodide staining based flow cytometry analysis (reference value: 54.3 %); assay type: functional

Activity (Mitochondrial membrane [2]) [%] | MIC [3] [µg/mL] | MIC (Staphylococcus aureus [4]) [µg/mL] | MIC (Staphylococcus aureus [9]) [µg/mL] | MIC [10] [µg/mL] | SMILES | fold change (FC) (A549 [1]) | selectivity ratio [5] | selectivity ratio [6] | IC50 at 72 h [7] [nM] | Activity (MDA-MB-231 [8]) [%] | Activity (MDA-MB-231 [11]) | fold change (FC) (MDA-MB-231 [12]) | selectivity ratio [13] | Activity (MDA-MB-231 [14]) [%] | IC50 (A549 [15]) [nM] | selectivity ratio [16] | Activity (A549 [17]) [%] | Activity (A549 [18]) | fold change (FC) (MDA-MB-231 [19]) | IC50 (MDA-MB-231 [20]) [nM] | also measured
29.4 | 2 | 2 | 2 | 2 | CCCC[P+](CCCC)(CCCC)CCCCOC(=O)[C@H](CC)[C@H]1CC[C@H](C)[C@H]([C@@H](C)[C@H](O)[C@H](C)C(=O)[C@H](CC)[C@H]2O[C@]3(C=C[C@@H](O)[C@]4(CC[C@@](C)([C@H]5CC[C@](O)(CC)[C@H](C)O5)O4)O3)[C@H](C)C[C@@H]2C)O1.[Br-] | 6 | 1.3 | 0.4 | 700 | 5.15 | inactive | 2 | 0.5 | 76.2 | 860 | 0.8 | 50 | Active | 8 | 900 | MIC (Escherichia coli): > 256 µg/mL; IC50 (SW-620): 520 nM; IC50 at 72 h [21]: 590 nM; fold change (FC) (A549 [22]): 3; Activity (MDA-MB-231 [23]): inactive; Activity (A549 [24]): 14.59%; Activity (A549 [25]): 19.91%; MIC (Staphylococcus aureus [26]): 2 µg/mL; Activity (A549 [27]): 70%; selectivity ratio [28]: 0.7; Activity (MDA-MB-231 [29]): 21.8%; fold change (FC) (MDA-MB-231 [30]): 5; Activity (A549 [31]): 12.94%; MIC (Staphylococcus aureus [32]): 2 µg/mL; Activity (Mitochondrial membrane [33]): 67.3%; Activity (A549 [34]): Active; Activity (A549 [35]): Active
39.1 | 1 | 2 | 2 | 2 | CC[C@@H](C(=O)[C@@H](C)[C@@H](O)[C@H](C)[C@@H]1O[C@@H]([C@@H](CC)C(=O)OCCCC[P+](c2ccccc2)(c2ccccc2)c2ccccc2)CC[C@@H]1C)[C@H]1O[C@]2(C=C[C@@H](O)[C@]3(CC[C@@](C)([C@H]4CC[C@](O)(CC)[C@H](C)O4)O3)O2)[C@H](C)C[C@@H]1C.[Br-] | 6 | 8.8 | 0.1 | 1230 | 5.23 | inactive | 2 | 0.9 | 77.7 | 670 | 1.8 | 50 | 12% | 8 | 740 | MIC (Escherichia coli): 256 µg/mL; IC50 (SW-620): 140 nM; IC50 at 72 h [21]: 130 nM; fold change (FC) (A549 [22]): 3; Activity (MDA-MB-231 [23]): inactive; Activity (A549 [24]): 3.9%; Activity (A549 [25]): 31.8%; MIC (Staphylococcus aureus [26]): 1 µg/mL; Activity (A549 [27]): 70%; selectivity ratio [28]: 0.2; Activity (MDA-MB-231 [29]): 15.32%; fold change (FC) (MDA-MB-231 [30]): 3; Activity (A549 [31]): 2.13%; MIC (Staphylococcus aureus [32]): 1 µg/mL; Activity (Mitochondrial membrane [33]): 58.3%; Activity (A549 [34]): 13.2%; Activity (A549 [35]): 68.5%
